Experimental data reported in patent publication US9849186B2, “Triblock copolymer and use therefor” (priority 2012, dated 2017).

Columns and labels:
[1] = test system: myeloperoxidase (MPO) activity; experiment: Carrageenan-induced arthritis model: MPO activity as marker of neutrophil infiltration; type: in vivo, mice; conditions: 50 μl s.c. right hind paw; 5% carrageenan 18 hours later; measured 6 hours after carrageenan
Procedure: Five mice (n=5) were used in each of 9 groups (Control, RIG, nRIG, Saline@Carr, RIG@Carr, nRIG@Carr, 4-amino-TEMPO@Carr, RNP^N@Carr, nRIG+4-amino-TEMPO@Carr).
50 μl each of nitroxide radical-containing polyion complex micelles for forming an RIG gel (RIG; molar ratio r=1:1, pH 6, 60 mg/ml), nitroxide radical-free polyion complex micelles for forming an nRIG gel (nRIG; molar ratio r=1:1, pH 6, 60 mg/ml), saline, a low-molecular-weight nitroxide radical compound solution (4-aminoTEMPO; 5.45 mg/ml), a nitroxide radical-containing polymer micelle solution (RNP^N; 60 mg/ml), and a solution of low-molecular-weight 4-aminoTEMPO physically mixed with nitroxide radical-free polyion complex micelles (n-RIG+4-aminoTEMPO; molar ratio r=1:1, pH 6, 60 mg/ml) was then injected subcutaneously into the right hind paws of mice. 18 hours later, 50 μl of 5% carrageenan buffer was injected subcutaneously into the right hind paws of the mice in the Saline@Carr, RIG@Carr, nRIG@Carr, 4-amino-TEMPO@Carr, RNP^N@Carr, and nRIG+4-aminoTEMPO@Carr groups (n=5). Nothing was administered to the Control group (n=5). […] The collected tissue of the mouse right hind paws was then homogenized, and the amount of inflammatory cytokines (TNF-α and IL-1β) and myeloperoxidase (MPO) activity as a marker of neutrophil infiltration were measured with an ELISA kit in the supernatant collected by centrifugation.

[2] = Local retention of injectable gel, imaging by L-band electron spin resonance; conditions: 70 μl s.c. into hind paw
Procedure: Three mice were used in each group. 70 μl of a solution of the nitroxide radical-containing polyion complex micelles used in Test 1 (PMNT-b-PEG-b-PMNT to PAA molar ratio r=1:1 (RIG). pH 6, 60 mg/ml) was injected subcutaneously into the left hind paws of three mice. […] Local retention of nitroxide radicals in the mouse paws was imaged by L-band electron spin resonance (ESR) using mice immediately after administration.

## CC1(C)CC(N)CC(C)(C)N1[O] [4-aminoTEMPO, 4-amino-TEMPO]
[1]
  suppression of MPO activity caused by carrageenan: not significantly suppressed
[2]
  time after administration at which ESR signal disappeared from mouse paws: ≤ 30 min
